Results reported in PubChem BioAssay (NCI).
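Growth conditions: 96-well plates. Treatment: test compound, 48 hours, 5 concentrations. Analysis: linear interpolation between bracketing concentrations; unreached endpoints set to highest concentration. TGI denotes the concentration required for complete inhibition of growth.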

Assays:
Test in all cases: growth of human tumour cells (NCI), 48 h
SK-MEL-2 melanoma = system: SK-MEL-2 melanoma
NCI-H460 lung = system: NCI-H460 lung
OVCAR-8 ovarian = system: OVCAR-8 ovarian
HOP-92 NSCLC = system: HOP-92 NSCLC
BT-549 breast = system: BT-549 breast
SF-268 CNS = system: SF-268 CNS
SK-MEL-5 melanoma = system: SK-MEL-5 melanoma
U251 CNS = system: U251 CNS
M14 melanoma = system: M14 melanoma
SN12C renal = system: SN12C renal
HOP-62 NSCLC = system: HOP-62 NSCLC
HT29 colon = system: HT29 colon
MOLT-4 leukemia = system: MOLT-4 leukemia
NCI-H522 lung = system: NCI-H522 lung
COLO 205 colon = system: COLO 205 colon
LOX IMVI melanoma = system: LOX IMVI melanoma
UACC-257 melanoma = system: UACC-257 melanoma
SNB-75 CNS = system: SNB-75 CNS
MCF7 breast = system: MCF7 breast
MDA-MB-231 breast = system: MDA-MB-231 breast
786-0 renal = system: 786-0 renal
A549 NSCLC = system: A549 NSCLC
HCT-15 colon = system: HCT-15 colon
NCI-H23 lung = system: NCI-H23 lung
RXF 393 renal = system: RXF 393 renal
HS 578T breast = system: HS 578T breast
A498 renal = system: A498 renal
DU-145 prostate = system: DU-145 prostate
MDA-N = system: MDA-N
KM12 colon = system: KM12 colon
SNB-19 CNS = system: SNB-19 CNS
ACHN renal = system: ACHN renal
HCT-116 colon = system: HCT-116 colon
SK-OV-3 ovarian = system: SK-OV-3 ovarian
PC-3 prostate = system: PC-3 prostate
SW-620 colon = system: SW-620 colon
IGROV1 ovarian = system: IGROV1 ovarian
CCRF-CEM leukemia = system: CCRF-CEM leukemia
EKVX NSCLC = system: EKVX NSCLC
MALME-3M melanoma = system: MALME-3M melanoma
K-562 leukemia = system: K-562 leukemia
OVCAR-3 ovarian = system: OVCAR-3 ovarian
NCI-H226 lung = system: NCI-H226 lung
MDA-MB-435 = system: MDA-MB-435
NCI/ADR-RES ovarian = system: NCI/ADR-RES ovarian
TK-10 renal = system: TK-10 renal
UACC-62 melanoma = system: UACC-62 melanoma
SK-MEL-28 melanoma = system: SK-MEL-28 melanoma
CAKI-1 renal = system: CAKI-1 renal
SF-295 CNS = system: SF-295 CNS
OVCAR-4 ovarian = system: OVCAR-4 ovarian
OVCAR-5 ovarian = system: OVCAR-5 ovarian
UO-31 renal = system: UO-31 renal
T-47D breast = system: T-47D breast
RPMI-8226 leukemia = system: RPMI-8226 leukemia
SF-539 CNS = system: SF-539 CNS
HCC-2998 colon = system: HCC-2998 colon

CN(C)CCCn1c(Cc2ccccc2)nc2cc(C(F)(F)F)ccc21
TGI (SK-MEL-2 melanoma): 33 µM | TGI (NCI-H460 lung): 43.2 µM | TGI (OVCAR-8 ovarian): > 100 µM | TGI (HOP-92 NSCLC): 92 µM | TGI (BT-549 breast): 92.4 µM | TGI (SF-268 CNS): > 100 µM | TGI (SK-MEL-5 melanoma): 33.2 µM | TGI (U251 CNS): 38.8 µM | TGI (M14 melanoma): 30.4 µM | TGI (SN12C renal): > 100 µM | TGI (HOP-62 NSCLC): > 100 µM | TGI (HT29 colon): 42.4 µM | TGI (MOLT-4 leukemia): 48.3 µM | TGI (NCI-H522 lung): 48.3 µM | TGI (COLO 205 colon): 34.7 µM | TGI (LOX IMVI melanoma): 35.6 µM | TGI (UACC-257 melanoma): 34.2 µM | TGI (SNB-75 CNS): > 100 µM | TGI (MCF7 breast): 39.3 µM | TGI (MDA-MB-231 breast): 73.3 µM | TGI (786-0 renal): 33.9 µM | TGI (A549 NSCLC): 31.8 µM | TGI (HCT-15 colon): 69.6 µM | TGI (NCI-H23 lung): 83.2 µM | TGI (RXF 393 renal): 67.8 µM | TGI (HS 578T breast): > 100 µM | TGI (A498 renal): 34.6 µM | TGI (DU-145 prostate): > 100 µM | TGI (MDA-N): 33.1 µM | TGI (KM12 colon): 31.3 µM | TGI (SNB-19 CNS): 86.9 µM | TGI (ACHN renal): > 100 µM | TGI (HCT-116 colon): 33.2 µM | TGI (SK-OV-3 ovarian): 63.2 µM | TGI (PC-3 prostate): > 100 µM | TGI (SW-620 colon): 75.2 µM | TGI (IGROV1 ovarian): > 100 µM | TGI (CCRF-CEM leukemia): 40.3 µM | TGI (EKVX NSCLC): 67.6 µM | TGI (MALME-3M melanoma): 35.5 µM | TGI (K-562 leukemia): 47 µM | TGI (OVCAR-3 ovarian): > 100 µM | TGI (NCI-H226 lung): > 100 µM | TGI (MDA-MB-435): 32.4 µM | TGI (NCI/ADR-RES ovarian): > 100 µM | TGI (TK-10 renal): 98.4 µM | TGI (UACC-62 melanoma): 34.4 µM | TGI (SK-MEL-28 melanoma): 37.6 µM | TGI (CAKI-1 renal): 51.1 µM | TGI (SF-295 CNS): 33.5 µM | TGI (OVCAR-4 ovarian): > 100 µM | TGI (OVCAR-5 ovarian): > 100 µM | TGI (UO-31 renal): 5.32 µM | TGI (T-47D breast): 50.7 µM

Cc1oc2nc1C(=O)NCc1nc(cs1)C(=O)N[C@H](C(C)C)c1nc(cs1)C(=O)N[C@H]2C
TGI (RPMI-8226 leukemia): 54.4 µM | TGI (NCI-H460 lung): > 100 µM | TGI (OVCAR-8 ovarian): > 100 µM | TGI (HOP-92 NSCLC): > 100 µM | TGI (BT-549 breast): > 100 µM | TGI (SF-268 CNS): > 100 µM | TGI (SK-MEL-5 melanoma): > 100 µM | TGI (U251 CNS): > 100 µM | TGI (M14 melanoma): > 100 µM | TGI (SN12C renal): > 100 µM | TGI (HOP-62 NSCLC): > 100 µM | TGI (HT29 colon): > 100 µM | TGI (MOLT-4 leukemia): > 100 µM | TGI (NCI-H522 lung): 87.4 µM | TGI (COLO 205 colon): > 100 µM | TGI (UACC-257 melanoma): > 100 µM | TGI (SF-539 CNS): > 100 µM | TGI (SNB-75 CNS): > 100 µM | TGI (MCF7 breast): > 100 µM | TGI (MDA-MB-231 breast): > 100 µM | TGI (786-0 renal): > 100 µM | TGI (A549 NSCLC): > 100 µM | TGI (HCT-15 colon): > 100 µM | TGI (NCI-H23 lung): > 100 µM | TGI (HCC-2998 colon): > 100 µM | TGI (RXF 393 renal): > 100 µM | TGI (HS 578T breast): > 100 µM | TGI (A498 renal): > 100 µM | TGI (DU-145 prostate): > 100 µM | TGI (MDA-N): > 100 µM | TGI (KM12 colon): > 100 µM | TGI (SNB-19 CNS): > 100 µM | TGI (ACHN renal): > 100 µM | TGI (HCT-116 colon): > 100 µM | TGI (SK-OV-3 ovarian): > 100 µM | TGI (PC-3 prostate): > 100 µM | TGI (SW-620 colon): > 100 µM | TGI (IGROV1 ovarian): > 100 µM | TGI (CCRF-CEM leukemia): > 100 µM | TGI (EKVX NSCLC): > 100 µM | TGI (MALME-3M melanoma): > 100 µM | TGI (K-562 leukemia): > 100 µM | TGI (OVCAR-3 ovarian): > 100 µM | TGI (NCI-H226 lung): > 100 µM | TGI (MDA-MB-435): > 100 µM | TGI (NCI/ADR-RES ovarian): > 100 µM | TGI (UACC-62 melanoma): > 100 µM | TGI (SK-MEL-28 melanoma): > 100 µM | TGI (CAKI-1 renal): > 100 µM | TGI (SF-295 CNS): 99.4 µM | TGI (OVCAR-4 ovarian): > 100 µM | TGI (OVCAR-5 ovarian): > 100 µM | TGI (UO-31 renal): > 100 µM | TGI (T-47D breast): > 100 µM
